# In patent publication US10226464B2, “Small molecule NF-κB inhibitors” (ImmuneTarget, Inc., priority 2015, dated 2019):
# How the values were obtained:
# [1] = target: c-Rel protein (Homo sapiens (Human), UniProt Q04864); assay: Electrophoretic Mobility Shift Assay (EMSA), Rel/NF-κB DNA binding inhibition; conditions: 10 nM c-Rel protein, phosphor-labeled CD28RE oligonucleotide
# Experimental: Electrophoretic Mobility Shift Assay (EMSA)
# DNA binding reaction (20 μL) was carried out in 1×DNA Binding Buffer (10 mM Tris, 40 mM NaCl, 1 mM EDTA, 4% glycerol) with 10 nM c-Rel protein and 0.5 ng phosphor-labeled CD28RE oligonucleotide for 10 minutes at room temperature in 96-well plates. Test compounds, in serial dilutions, were added into each well, and further incubated for 15 minutes before loading onto native 5% polyacrylamide gel. Electrophoresis proceeded for 2.5 hours at 160V. Radioactive signals were quantified using Phospho-Imager. IC50 of compounds of example 1 to 75 were determined by quantifying the intensity of Rel/NF-κB inhibition in EMSA using phospho-imager. An example of EMSA data of the present invention is shown for compound 6 in FIG. 2.
# [2] = tested on: NF-κB; assay: NF-κB GFP Assay (NFκB/Jurkat/GFP transcriptional reporter cell line); assay type: cell-based; conditions: Homo sapiens; NF-κB/Jurkat/GFP reporter cells, TNF-α 5 ng/ml, 24 hours; read-out: NF-KB GFP IC50
# Experimental: NFκB/Jurkat/GFP transcriptional reporter cell line was obtained from SBI System Biosciences. NF-κB/Jurkat/GFP™ Reporter cells (5×10^5 cells) were plated at a concentration of 1 million cells/ml into each well of a 24-well plate. TNF-α (5 ng/ml) was added. Compounds were added via serial dilutions to corresponding wells. After 24 hours, 100 μl of the cells were transferred to a well of a Costar® UV plate (96 well, No lid, w/ UV Transparent Flat Bottom, Corning, N.Y., Cat#3635) and the intensity of GFP fluorescence was measured (Excitation 485+/−20, Emission 528+/−20) in a Synergy™ HT Multi-Detection Microplate Reader (BioTech, Winooski, Vt.). The intensities of GFP measured were plotted against the […].
# Sequence of c-Rel protein (Q04864 whole entry): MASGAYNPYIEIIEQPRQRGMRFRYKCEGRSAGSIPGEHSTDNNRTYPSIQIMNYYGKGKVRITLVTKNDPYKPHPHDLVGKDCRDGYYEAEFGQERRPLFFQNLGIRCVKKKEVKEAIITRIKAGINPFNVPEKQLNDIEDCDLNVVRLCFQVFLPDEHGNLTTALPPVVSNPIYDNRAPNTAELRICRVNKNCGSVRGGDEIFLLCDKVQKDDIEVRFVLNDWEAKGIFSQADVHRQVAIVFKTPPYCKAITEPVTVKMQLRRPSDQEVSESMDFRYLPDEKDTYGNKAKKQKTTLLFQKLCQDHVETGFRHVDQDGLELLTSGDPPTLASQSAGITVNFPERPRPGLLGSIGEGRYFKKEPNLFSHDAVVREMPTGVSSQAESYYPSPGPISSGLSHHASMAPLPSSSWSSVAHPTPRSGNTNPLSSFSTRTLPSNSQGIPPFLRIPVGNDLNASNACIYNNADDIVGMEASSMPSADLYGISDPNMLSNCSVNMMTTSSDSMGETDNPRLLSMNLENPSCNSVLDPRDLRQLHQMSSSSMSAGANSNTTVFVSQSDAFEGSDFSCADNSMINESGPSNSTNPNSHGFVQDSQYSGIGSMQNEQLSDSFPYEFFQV
IC50 [1] [µM],IC50 [2] [µM],SMILES
< 0.5,< 5,CCCCCCCOc1ccc2cc3c(=O)[nH]c(=O)nc-3oc2c1F [Compound 52]
< 5,< 20,O=C(O)CCCOc1ccc2cc3c(=O)[nH]c(=O)nc-3oc2c1Cl [Compound 55]
< 5,< 20,O=C(O)COc1ccc2cc3c(=O)[nH]c(=O)nc-3oc2c1Cl [Compound 56]
< 1,< 5,COCCOCCOc1ccc2cc3c(=O)[nH]c(=O)nc-3oc2c1F [Compound 63]
< 1,< 5,COCCOCCCOc1ccc2cc3c(=O)[nH]c(=O)nc-3oc2c1 [Compound 71]
< 1,< 5,COCCOCCCOc1ccc2cc3c(=O)[nH]c(=O)nc-3oc2c1F [Compound 73]
< 1,< 5,COCCOCCCOc1cc2oc3nc(=O)[nH]c(=O)c-3cc2cc1Cl [Compound 74]
< 1,< 5,"COCCOCCCOc1cc2oc3nc(=O)[nH]c(=O)c-3cc2cc1F [Compound 75, 7-fluoro-8-(3-(2-methoxyethoxy)propoxy)-2H-chromeno[2,3-d]pyrimidine-2,4(3H)-dione]"

# More lines, now with the values behind:
SMILES,IC50 [1] [µM],IC50 [2] [µM]
"O=C(O)CCCCCOc1ccc2cc3c(=O)[nH]c(=O)nc-3oc2c1Cl [Compound 53, 6-((9-chloro-2,4-dioxo-3,4-dihydro-2H-chromeno[2,3-d]pyrimidin-8-yl)oxy)hexanoic acid]",< 5,< 20
COC(=O)CCCCOc1ccc2cc3c(=O)[nH]c(=O)nc-3oc2c1Cl [Compound 57],< 5,< 20
CC(=O)OCCCCCCOc1ccc2cc3c(=O)[nH]c(=O)nc-3oc2c1Cl [Compound 58],< 5,< 20
CC(=O)OCCCOc1ccc2cc3c(=O)[nH]c(=O)nc-3oc2c1Cl [Compound 59],< 5,< 20
"CC(=O)OCCCCOc1ccc2cc3c(=O)[nH]c(=O)nc-3oc2c1Cl [Compound 60, 4-((9-chloro-2,4-dioxo-3,4-dihydro-2H-chromeno[2,3-d]pyrimidin-8-yl)oxy)butyl acetate]",< 5,< 20
"COCCOCCOc1ccc2cc3c(=O)[nH]c(=O)nc-3oc2c1 [Compound 61, 8-(2-(2-methoxyethoxy)ethoxy)-2H-chromeno[2,3-d]pyrimidine-2,4(3H)-dione]",< 1,< 5
COCCOCCOc1ccc2cc3c(=O)[nH]c(=O)nc-3oc2c1Cl [Compound 62],< 1,< 5
COCCOCCOc1cc2oc3nc(=O)[nH]c(=O)c-3cc2cc1Cl [Compound 64],< 1,< 5
COCCOCCOc1cc2oc3nc(=O)[nH]c(=O)c-3cc2cc1F [Compound 65],< 1,< 5
"COCCCCOc1ccc2cc3c(=O)[nH]c(=O)nc-3oc2c1Cl [Compound 66, 9-chloro-8-(4-methoxybutoxy)-2H-chromeno[2,3-d]pyrimidine-2,4(3H)-dione]",< 1,< 5
COCCCCOc1ccc2cc3c(=O)[nH]c(=O)nc-3oc2c1 [Compound 67],< 1,< 5
COCCCCOc1ccc2cc3c(=O)[nH]c(=O)nc-3oc2c1F [Compound 68],< 1,< 5
COCCCCOc1cc2oc3nc(=O)[nH]c(=O)c-3cc2cc1Cl [Compound 69],< 1,< 5
COCCCCOc1cc2oc3nc(=O)[nH]c(=O)c-3cc2cc1F [Compound 70],< 1,< 5
COCCOCCCOc1ccc2cc3c(=O)[nH]c(=O)nc-3oc2c1Cl [Compound 72],< 1,< 5
